# Measured values published in the supplement of paper PMC11208160.
# Test: recombinant barcode read abundance after kanamycin selection (control-corrected) (log10(CPM+1)); higher = more efficient recombination; sequences stand for … in AGTGCAGAGAAAATCGGCCAGTTTTCTCTGCCTGCAGTCCGCATGCCGT…ATTTATGCAGCGGACTGCCTTTCTCCCAAAGTGATAAACCGGACAGTATCATGGACCGGTTTTCCCGGTAATCCGTATTTGCAAGGTTGGTTTCACT; site = the 11-nt target
# Procedure, shortened: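 In a pooled screen in E. coli, targets were paired with target-binding loops of the IS621 bridge RNA. Each oligo carried a promoter, a target, a barcode and the first 104 bridge RNA bases driven by J23119, and was Gibson-cloned into a vector holding the remaining 73 bp and a T7-inducible recombinase before co-electroporation with a donor plasmid. Duplicate platings went onto chloramphenicol/ampicillin LB agar as the control or onto chloramphenicol/ampicillin/kanamycin with 0.1 mM IPTG. Recombination efficiency is the averaged, control-corrected count per million of barcodes at recombinant junctions, given as log10(CPM+1).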
row,Sequence,recombinant barcode read abundance (log10)
1,"GGGCGTGCCTGGGTTCTAACCTGTTGCCTAG [GGGCGTGCTAG_LTGcore_CC_RTGcore_CT] (site GGGCGTGCTAG) (LTG core: CC, RTG core: CT)",0.255
2,"GGGCGTGCTTGGGTTCTAACCTGTTGCCTCG [GGGCGTGCTAG_LTGcore_CT_RTGcore_CG] (site GGGCGTGCTAG) (LTG core: CT, RTG core: CG)",0.166
3,"GGGCGTGCTTGGGTTCTAACCTGTTGCCTTA [GGGCGTGCTAG_LTGcore_CT_RTGcore_TA] (site GGGCGTGCTAG) (LTG core: CT, RTG core: TA)",0.139
4,"GGGCGTGGATGGGTTCTAACCTGTTGCCTAG [GGGCGTGCTAG_LTGcore_GA_RTGcore_CT] (site GGGCGTGCTAG) (LTG core: GA, RTG core: CT)",0.0898
5,"GGGCGTGGCTGGGTTCTAACCTGTTGCCTAG [GGGCGTGCTAG_LTGcore_GC_RTGcore_CT] (site GGGCGTGCTAG) (LTG core: GC, RTG core: CT)",0.276
6,"GGGCGTGTTTGGGTTCTAACCTGTTGCCTAG [GGGCGTGCTAG_LTGcore_TT_RTGcore_CT] (site GGGCGTGCTAG) (LTG core: TT, RTG core: CT)",0.0908
7,"GGTGCCCAATGGGTTCTAACCTGTTGCCGAG [GGTGCCCCTCG_LTGcore_AA_RTGcore_CT] (site GGTGCCCCTCG) (LTG core: AA, RTG core: CT)",0.135
8,"GGTGCCCACTGGGTTCTAACCTGTTGCCGGT [GGTGCCCCTCG_LTGcore_AC_RTGcore_AC] (site GGTGCCCCTCG) (LTG core: AC, RTG core: AC)",0.066
9,"GGTGCCCAGTGGGTTCTAACCTGTTGCCGCT [GGTGCCCCTCG_LTGcore_AG_RTGcore_AG] (site GGTGCCCCTCG) (LTG core: AG, RTG core: AG)",0.102
10,"GGTGCCCCTTGGGTTCTAACCTGTTGCCGAT [GGTGCCCCTCG_LTGcore_CT_RTGcore_AT] (site GGTGCCCCTCG) (LTG core: CT, RTG core: AT)",0.19
11,"GGTGCCCCTTGGGTTCTAACCTGTTGCCGCC [GGTGCCCCTCG_LTGcore_CT_RTGcore_GG] (site GGTGCCCCTCG) (LTG core: CT, RTG core: GG)",0.0795
12,"GGTGCCCCTTGGGTTCTAACCTGTTGCCGCG [GGTGCCCCTCG_LTGcore_CT_RTGcore_CG] (site GGTGCCCCTCG) (LTG core: CT, RTG core: CG)",0.222
13,"GGTGCCCCTTGGGTTCTAACCTGTTGCCGCT [GGTGCCCCTCG_LTGcore_CT_RTGcore_AG] (site GGTGCCCCTCG) (LTG core: CT, RTG core: AG)",0.0402
14,"GGTGCCCCTTGGGTTCTAACCTGTTGCCGGC [GGTGCCCCTCG_LTGcore_CT_RTGcore_GC] (site GGTGCCCCTCG) (LTG core: CT, RTG core: GC)",0.83
15,"GGTGCCCCTTGGGTTCTAACCTGTTGCCGGT [GGTGCCCCTCG_LTGcore_CT_RTGcore_AC] (site GGTGCCCCTCG) (LTG core: CT, RTG core: AC)",0.0162
16,"GGTGCCCGGTGGGTTCTAACCTGTTGCCGCC [GGTGCCCCTCG_LTGcore_GG_RTGcore_GG] (site GGTGCCCCTCG) (LTG core: GG, RTG core: GG)",0.0147
17,"GGTGCCCGTTGGGTTCTAACCTGTTGCCGAG [GGTGCCCCTCG_LTGcore_GT_RTGcore_CT] (site GGTGCCCCTCG) (LTG core: GT, RTG core: CT)",0.0597
18,"GGTGCCCTTTGGGTTCTAACCTGTTGCCGAA [GGTGCCCCTCG_LTGcore_TT_RTGcore_TT] (site GGTGCCCCTCG) (LTG core: TT, RTG core: TT)",0.622
19,"GTCGCCCAATGGGTTCTAACCTGTTGCTAAG [GTCGCCCCTTA_LTGcore_AA_RTGcore_CT] (site GTCGCCCCTTA) (LTG core: AA, RTG core: CT)",0.688
20,"GTCGCCCACTGGGTTCTAACCTGTTGCTAAG [GTCGCCCCTTA_LTGcore_AC_RTGcore_CT] (site GTCGCCCCTTA) (LTG core: AC, RTG core: CT)",0.309
21,"GTCGCCCCATGGGTTCTAACCTGTTGCTAAG [GTCGCCCCTTA_LTGcore_CA_RTGcore_CT] (site GTCGCCCCTTA) (LTG core: CA, RTG core: CT)",2.04
22,"GTCGCCCCCTGGGTTCTAACCTGTTGCTAAG [GTCGCCCCTTA_LTGcore_CC_RTGcore_CT] (site GTCGCCCCTTA) (LTG core: CC, RTG core: CT)",0.771
23,"GTCGCCCCTTGGGTTCTAACCTGTTGCTAAT [GTCGCCCCTTA_LTGcore_CT_RTGcore_AT] (site GTCGCCCCTTA) (LTG core: CT, RTG core: AT)",0.474

row,Sequence,recombinant barcode read abundance (log10)
1,"GTCGCCCCTTGGGTTCTAACCTGTTGCTACG [GTCGCCCCTTA_LTGcore_CT_RTGcore_CG] (site GTCGCCCCTTA) (LTG core: CT, RTG core: CG)",0.323
2,"GTCGCCCCTTGGGTTCTAACCTGTTGCTAGA [GTCGCCCCTTA_LTGcore_CT_RTGcore_TC] (site GTCGCCCCTTA) (LTG core: CT, RTG core: TC)",0.304
3,"GTCGCCCGCTGGGTTCTAACCTGTTGCTAGC [GTCGCCCCTTA_LTGcore_GC_RTGcore_GC] (site GTCGCCCCTTA) (LTG core: GC, RTG core: GC)",0.459
4,"GTCGCCCTCTGGGTTCTAACCTGTTGCTAAG [GTCGCCCCTTA_LTGcore_TC_RTGcore_CT] (site GTCGCCCCTTA) (LTG core: TC, RTG core: CT)",0
5,"TAAGAATACTGGGTTCTAACCTGTTGCCTGT [TAAGAATCTAG_LTGcore_AC_RTGcore_AC] (site TAAGAATCTAG) (LTG core: AC, RTG core: AC)",0.0208
6,"TAAGAATCATGGGTTCTAACCTGTTGCCTAG [TAAGAATCTAG_LTGcore_CA_RTGcore_CT] (site TAAGAATCTAG) (LTG core: CA, RTG core: CT)",0.838
7,"TAAGAATCTTGGGTTCTAACCTGTTGCCTAC [TAAGAATCTAG_LTGcore_CT_RTGcore_GT] (site TAAGAATCTAG) (LTG core: CT, RTG core: GT)",0.116
8,"TAAGAATCTTGGGTTCTAACCTGTTGCCTCA [TAAGAATCTAG_LTGcore_CT_RTGcore_TG] (site TAAGAATCTAG) (LTG core: CT, RTG core: TG)",0.343
9,"TAAGAATCTTGGGTTCTAACCTGTTGCCTCC [TAAGAATCTAG_LTGcore_CT_RTGcore_GG] (site TAAGAATCTAG) (LTG core: CT, RTG core: GG)",0.142
10,"TAAGAATCTTGGGTTCTAACCTGTTGCCTGT [TAAGAATCTAG_LTGcore_CT_RTGcore_AC] (site TAAGAATCTAG) (LTG core: CT, RTG core: AC)",0.0874
11,"TAAGAATGATGGGTTCTAACCTGTTGCCTAG [TAAGAATCTAG_LTGcore_GA_RTGcore_CT] (site TAAGAATCTAG) (LTG core: GA, RTG core: CT)",0.0742
12,"TAAGAATGCTGGGTTCTAACCTGTTGCCTGC [TAAGAATCTAG_LTGcore_GC_RTGcore_GC] (site TAAGAATCTAG) (LTG core: GC, RTG core: GC)",0.0564
13,"TAAGAATGGTGGGTTCTAACCTGTTGCCTCC [TAAGAATCTAG_LTGcore_GG_RTGcore_GG] (site TAAGAATCTAG) (LTG core: GG, RTG core: GG)",0.113
14,"TAAGAATTCTGGGTTCTAACCTGTTGCCTGA [TAAGAATCTAG_LTGcore_TC_RTGcore_TC] (site TAAGAATCTAG) (LTG core: TC, RTG core: TC)",0.0111
15,"TAAGAATTGTGGGTTCTAACCTGTTGCCTCA [TAAGAATCTAG_LTGcore_TG_RTGcore_TG] (site TAAGAATCTAG) (LTG core: TG, RTG core: TG)",0.0917
16,"TAGAGGGATTGGGTTCTAACCTGTTGCGGAG [TAGAGGGCTCC_LTGcore_AT_RTGcore_CT] (site TAGAGGGCTCC) (LTG core: AT, RTG core: CT)",0.147
17,"TAGAGGGCGTGGGTTCTAACCTGTTGCGGAG [TAGAGGGCTCC_LTGcore_CG_RTGcore_CT] (site TAGAGGGCTCC) (LTG core: CG, RTG core: CT)",2.42
18,"TAGAGGGGTTGGGTTCTAACCTGTTGCGGAG [TAGAGGGCTCC_LTGcore_GT_RTGcore_CT] (site TAGAGGGCTCC) (LTG core: GT, RTG core: CT)",0.85
19,"TCGCGACATTGGGTTCTAACCTGTTGCCGAT [TCGCGACCTCG_LTGcore_AT_RTGcore_AT] (site TCGCGACCTCG) (LTG core: AT, RTG core: AT)",0.205
20,"TCGCGACCCTGGGTTCTAACCTGTTGCCGAG [TCGCGACCTCG_LTGcore_CC_RTGcore_CT] (site TCGCGACCTCG) (LTG core: CC, RTG core: CT)",0.466
21,"TCGCGACCGTGGGTTCTAACCTGTTGCCGCG [TCGCGACCTCG_LTGcore_CG_RTGcore_CG] (site TCGCGACCTCG) (LTG core: CG, RTG core: CG)",0.0313
22,"TCGCGACCTTGGGTTCTAACCTGTTGCCGAC [TCGCGACCTCG_LTGcore_CT_RTGcore_GT] (site TCGCGACCTCG) (LTG core: CT, RTG core: GT)",0.201
